How the values were obtained:
[1] = system: IL-10; test: IL-10 secretion by macrophages infected ex vivo with M. Tb H37Rv (FIG. 3; healthy individuals and Type 2 diabetes mellitus); assay type: cell-based, human; conditions: NAC supplied in millimolar amounts
Text: FIG. 3 is two bar graphs using various substances or compositions for raising glutathione in macrophages and how macrophages respond to these various methods. On the left is a control graph for healthy individuals. On the right is a graph for individuals affected with Type 2 diabetes mellitus.
The right graph of FIG. 3 depicts the response of macrophages from individuals with Type 2 diabetes mellitus ex vivo, which have been infected with M. Tb strain H37Rv.
Prior to the current invention, no method of lowering IL-10 in individuals with type 1 or type 2 diabetes mellitus has been proposed. Type 1 diabetes is an immune disorder in which the body's immune cells (white blood cells) attack and destroy insulin-producing beta cells in the pancreas. As a result, the body cannot produce insulin and glucose stays and builds up in the blood, where it damages all the organ systems. […] Similar to type 1 diabetes, type 2 causes a build-up of glucose in the blood which damages the body's organ systems. One of the key complications of Type 2 diabetes is prolonged infection and inhibited response to infection and poor wound healing. This Type 2 form of the disease is commonly referred to as adult-onset diabetes. Cytokine levels, such as for IL-10, in plasma samples can be determined by sandwich enzyme linked immunosorbent assay (ELISA) using assay kits from eBioscience (kit named ELISA Ready-Set-Go). […]

[2] = system: Mycobacterium tuberculosis; conditions: NAC at 10 millimolar; cited from earlier work

Structure (SMILES): CC(=O)N[C@@H](CS)C(=O)O [NAC, N-acetyl cysteine]
- IL-10 level from macrophages in cell culture [1]: reduce to normal
- M. tuberculosis CFU/ml in macrophages [2]: 8,000 CFU/ml

— patent US20170281714A1, “METHOD OF TREATMENT USING L[…] G[…] COOPERATE WITH IL-10 TO MODULATE INFLAMMATORY RESPONSE TRIGGERED IN HIV+ AND TB IMMUNE-C[…] PATIENTS” (Your Energy Systems, LLC, priority 2014, published 2017)
